In patent US20060247261A1 (priority 2002, published 2006):
Where a name gives a salt, the structure may show the parent alone.

Biological target: T1, human cannabinoid CB2 receptor (Homo sapiens, UniProt P34972)
T1 construct: expressed in transfected cells; host or cells: Saccharomyces cerevisiae strain MMY23 (expresses a chimeric Gpa1/human Galpha-i3 G-protein alpha subunit)
Test: Cannabinoid CB2 receptor agonist activity, yeast reporter assay
Format: cell-based
Conditions: for Emax: read-out: efficacy (Emax) at the cloned human cannabinoid CB2 receptor; for activity in the CB2 assay (in words): CB2 assay described herein
Text: Yeast (Saccharomyces cerevisiae) cells expressing the human cannabinoid CB2 receptor were generated by integration of an expression cassette into the ura3 chromosomal locus of yeast strain MMY23. This cassette consisted of DNA sequence encoding the human CB2 receptor flanked by the yeast GPD promoter to the 5′ end of CB2 and a yeast transcriptional terminator sequence to the 3′ end of CB2. MMY23 expresses a yeast/mammalian chimeric G-protein alpha subunit in which the C-terminal 5 amino acids of Gpa1 are replaced with the C-terminal 5 amino acids of human Gαi3 (as described in Brown et al. (2000), Yeast 16:11-22).
Agonists were prepared as 10 mM stocks in DMSO. […] Agonist solutions in DMSO (1% final assay volume) were transferred into black, clear bottom, microtitre plates from NUNC (96- or 384-well). […] Fluorescence was plotted against compound concentration and iteratively curve fitted using a four parameter fit to generate a concentration effect value.

T1 sequence (P34972 whole entry): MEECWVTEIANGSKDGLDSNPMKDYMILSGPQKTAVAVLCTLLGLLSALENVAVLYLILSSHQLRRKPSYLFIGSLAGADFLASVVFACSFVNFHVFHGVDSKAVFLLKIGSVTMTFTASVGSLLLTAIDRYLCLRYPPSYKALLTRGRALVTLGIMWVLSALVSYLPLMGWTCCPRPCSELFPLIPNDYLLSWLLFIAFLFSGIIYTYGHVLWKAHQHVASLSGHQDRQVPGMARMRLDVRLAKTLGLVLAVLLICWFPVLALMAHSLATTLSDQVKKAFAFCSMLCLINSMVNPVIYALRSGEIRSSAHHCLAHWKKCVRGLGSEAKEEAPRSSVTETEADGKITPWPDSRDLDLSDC

Structure (SMILES)	EC50 [nM]	Emax [%]	activity in the CB2 assay (in words)
CN(Cc1ccccc1)C(=O)c1cnc(Nc2cccc(C#N)c2)nc1C(F)(F)F [Example 48, 2-(3-Cyano-phenylamino)-4-trifluoromethyl-pyrimidine-5-carboxylic acid N-benzyl-N-methyl-amide]	> 1000	< 50	–
O=C(NCc1ccnc(F)c1)c1cnc(Nc2cccc(Cl)c2)nc1C(F)(F)F [Example 29, 2-(3-Chloro-phenylamino)-4-trifluoromethyl-pyrimidine-5-carboxylic acid (2-fluoro-pyridin-4-ylmethyl)-amide]	20 to 1000	> 50	–
Cc1cc(CNC(=O)c2cnc(Nc3cccc(F)c3)nc2C(F)(F)F)ccn1 [Example 77, 2-(3-Fluoro-phenylamino)-4-trifluoromethyl-pyrimidine-5-carboxylic acid N-(2-methyl-pyridin-4-ylmethyl)-amide]	> 1000	< 50	–
CN(Cc1ccccc1)C(=O)c1cnc(Nc2cccc(Cl)c2)nc1C(F)(F)F [Example 3, 2-(3-Chlorophenylamino)-4-trifluoromethylpyrimidine-5-carboxylic acid N-benzyl-N-methylamide]	20 to 1000	> 50	–
O=C(NCc1ccc(F)cc1)c1cnc(Nc2ccc(F)c(Cl)c2)nc1C(F)(F)F [Example 82, 2-(3-Chloro-4-fluoro-phenylamino)-4-trifluoromethyl-pyrimidine-5-carboxylic acid 4-fluoro-benzylamide]	20 to 1000	> 50	–
O=C(NCc1ccnc(F)c1)c1cnc(Nc2ccc(Cl)cc2Cl)nc1C(F)(F)F [Example 95, 2-(2,4-Dichloro-phenylamino)-4-trifluoromethyl-pyrimidine-5-carboxylic acid (2-fluoro-pyridin-4-ylmethyl)-amide]	20 to 1000	> 50	–
O=C(NCc1ccc(F)cc1C(F)(F)F)c1cnc(Nc2cccc(Cl)c2)nc1C(F)(F)F [Example 74, 2-(3-Chloro-phenylamino)-4-trifluoromethyl-pyrimidine-5-carboxylic acid N-(4-fluoro-2-trifluoromethyl-benzyl)amide]	> 1000	< 50	–
O=C(NCc1cccc(Cl)c1)c1cnc(Nc2cccc(Cl)c2)nc1C(F)(F)F [Example 52, 2-(3-Chloro-phenylamino)-4-trifluoromethyl-pyrimidine-5-carboxylic acid N-(3-chlorobenzyl)amide]	> 1000	< 50	–
N#Cc1ccc(CNC(=O)c2cnc(Nc3ccc(Cl)cc3Cl)nc2C(F)(F)F)cc1 [Example 66, 2-(2,4-Dichloro-phenylamino)-4-trifluoromethyl-pyrimidine-5-carboxylic acid N-(4-cyano-benzyl)amide]	> 1000	< 50	–
O=C(NCc1ccccc1)c1cnc(Nc2c(Cl)cccc2Cl)nc1C(F)(F)F [Example 98, 2-(2,6-Dichloro-phenylamino)-4-trifluoromethyl-pyrimidine-5-carboxylic acid benzylamide]	20 to 1000	> 50	–
CN(Cc1ccccc1)C(=O)c1cnc(Nc2ccc(Cl)cc2Cl)nc1C(F)(F)F [Example 54, 2-(2,4-Dichloro-phenylamino)-4-trifluoroniethyl-pyrimidine-5-carboxylic acid N-benzyl-N methyl-amide]	> 1000	< 50	–
CN(Cc1ccccc1)C(=O)c1cnc(Nc2cc(Cl)ccc2Cl)nc1C(F)(F)F [Example 58, 2-(2,5-Dichloro-phenylamino)-4-trifluoromethyl-pyrimidine-5-carboxylic acid N-benzyl-N-methyl-amide]	> 1000	< 50	–
CN(Cc1ccccc1)C(=O)c1cnc(Nc2ccc(Cl)c(Cl)c2)nc1C(F)(F)F [Example 55, 2-(3,4-Dichloro-phenylamino)-4-trifluoromethyl-pyrimidine-5-carboxylic acid N-benzyl-N-methyl-amide]	> 1000	< 50	–
O=C(NCc1ccc(Br)cc1)c1cnc(Nc2cccc(Cl)c2)nc1C(F)(F)F [Example 63, 2-(3-Chloro-phenylamino)-4-trifluoromethyl-pyrimidine-5-carboxylic acid N-(4-bromo-benzyl)amide]	> 1000	< 50	–
Cc1cc(CNC(=O)c2cnc(Nc3cccc(Cl)c3)nc2C(F)(F)F)ccn1 [Example 28, 2-(3-Chloro-phenylamino)-4-trifluoromethyl-pyrimidine-5-carboxylic acid (2-methyl-pyridin-4-ylmethyl)-amide hydrochloride]	20 to 1000	> 50	–
CN(Cc1ccccc1)C(=O)c1cnc(Nc2cc(Cl)cc(Cl)c2)nc1C(F)(F)F [Example 57, 2-(3,5-Dichloro-phenylamino)-4-trifluoromethyl-pyrimidine-5-carboxylic acid N-benzyl-N-methyl-amide]	> 1000	< 50	–

Structure (SMILES)	EC50 [nM]	Emax [%]	activity in the CB2 assay (in words)
N#Cc1ccc(CNC(=O)c2cnc(Nc3c(Cl)cccc3Cl)nc2C(F)(F)F)cc1 [Example 71, 2-(2,6-Dichloro-phenylamino)-4-trifluoroniethyl-pyrimidine-5-carboxylic acid N-(4-cyano-benzyl)amide]	> 1000	< 50	–
O=C(NCc1ccncc1)c1cnc(Nc2cccc(Br)c2)nc1C(F)(F)F [Example 21, 2-(3-Bromophenylamino)-4-trifluoromethylpyrimidine-5-carboxylic acid (pyridin-4-ylmethyl)amide]	20 to 1000	> 50	–
O=C(NCc1ccc(F)cc1Cl)c1cnc(Nc2cccc(Cl)c2)nc1C(F)(F)F [Example 72, 2-(3-Chloro-phenylamino)-4-trifluoromethyl-pyrimidine-5-carboxylic acid N-(2-chloro-4-fluoro-benzyl)amide]	> 1000	< 50	–
CC(C)(C)c1ccc(Nc2ncc(C(=O)NCc3ccccc3)c(C(F)(F)F)n2)cc1 [2-(4-tert-butyl-phenylamino)-4-trifluoromethyl-pyrimidine-5-carboxylic acid benzylamide]	–	–	inactive
O=C(NCc1ccnc(F)c1)c1cnc(Nc2cccc(Cl)c2Cl)nc1C(F)(F)F [Example 94, 2-(2,3-Dichloro-phenylamino)-4-trifluoromethyl-pyrimidine-5-carboxylic acid (2-fluoro-pyridin-4-ylmethyl)-amide]	20 to 1000	> 50	–
O=C(NCc1ccnc(F)c1)c1cnc(Nc2cccc(F)c2)nc1C(F)(F)F [Example 89, 2-(3-Fluoro-phenylamino)-4-trifluoromethyl-pyrimidine-5-carboxylic acid (2-fluoro-pyridin-4-ylmethyl)-amide]	20 to 1000	> 50	–
O=C(NCc1ccnc(F)c1)c1cnc(Nc2cccc(Br)c2)nc1C(F)(F)F [Example 88, 2-(3-Bromo-phenylamino)-4-trifluoromethyl-pyrimidine-5-carboxylic acid (2-fluoro-pyridin4-ylmethyl)-amide]	20 to 1000	> 50	–
O=C(NCc1ccccc1)c1cnc(Nc2cc(Cl)cc(Cl)c2)nc1C(F)(F)F [Example 11, 2-(3,5-Dichlorophenylamino)trifluoromethylpyrimidine-5-carboxylic acid benzyl-amide]	20 to 1000	> 50	–
COc1ccc(Nc2ncc(C(=O)N(C)Cc3ccccc3)c(C(F)(F)F)n2)cc1 [Example 47, 2-(4-Methoxy-phenylamino)-4-trifluoromethyl-pyrimidine-5-carboxylic acid N-benzyl-N-methyl-amide]	> 1000	< 50	–
O=C(NCc1ccc(F)cc1)c1cnc(Nc2c(Cl)cccc2Cl)nc1C(F)(F)F [Example 70, 2-(2,6-Dichloro-phenylamino)-4-trifluoromethyl-pyrimidine-5-carboxylic acid N-(4-fluoro-benzyl)amide]	> 1000	< 50	–
Cc1ccc(CNC(=O)c2cnc(Nc3cccc(Cl)c3)nc2C(F)(F)F)cc1 [Example 78, 2-(3-Chloro-phenylamino)-4-trifluoromethyl-pyrimidine-5-carboxylic acid N-(4-methyl-benzyl)amide]	> 1000	< 50	–
CN(Cc1ccccc1)C(=O)c1cnc(Nc2cccc(Br)c2)nc1C(F)(F)F [Example 14, 2-(3-Bromophenylamino)-4-trifluoromethylpyrimidine-5-carboxylic acid N-benzyl-N-methylamide]	20 to 1000	> 50	–
O=C(NCc1ccc(F)cc1)c1cnc(Nc2cc(C(F)(F)F)cc(C(F)(F)F)c2)nc1C(F)(F)F [Example 114, 2-(3,5-Ditrifluoromethyl-phenylamino)-4-trifluoromethyl-pyrimidine-5-carboxylic acid 4-fluoro-benzylamide]	> 1000	< 50	–
COc1ccccc1CNC(=O)c1cnc(Nc2cccc(Cl)c2)nc1C(F)(F)F [2-(3-Chloro-phenylamino)-4-trifluoromethyl-pyrimidine-5-carboxylic acid 2-methoxy-benzylamide]	–	–	inactive
O=C(NCc1ccccc1Br)c1cnc(Nc2cccc(Cl)c2)nc1C(F)(F)F [2-(3-Chloro-phenylamino)-4-trifluoromethyl-pyrimidine-5-carboxylic acid 2-bromo-benzylamide]	–	–	inactive
CN(Cc1ccc(F)cc1)C(=O)c1cnc(Nc2cccc(Cl)c2)nc1C(F)(F)F [Example 110, 2-(3-Chloro-phenylamino)-4-trifluoromethyl-pyrimidine-5-carboxylic acid (4-fluoro-benzyl)-methyl-amide]	> 1000	< 50	–
